From PMC10819565, “Effects of H2-Receptor Antagonists on the Exposure of Dacomitinib” (Pharmaceutics, 2024)
≈ marks a conversion by molar mass, not a printed value. Read-outs that look alike come from different tables or passages of the source.

Assays:
[1] = Within-patient comparison of steady-state trough concentrations (Ctrough,ss) with and without concomitant H2RA, pooled data from 11 clinical studies; assay type: in vivo, human; conditions: for Ctrough,ss Geometric Mean (Geometric CV%), Test / Ctrough,ss Geometric Mean (Geometric CV%), Reference: patients, dose normalized to 45 mg QD; for Ctrough,ss Geometric Mean (Geometric CV%), Test: dacomitinib co-administered with H2RA (at least 3 days); for Ctrough,ss Geometric Mean (Geometric CV%), Reference: dacomitinib without H2RA
Procedure: This analysis included data from 11 clinical studies. Patients in these studies who received continuous oral dosing schedule of dacomitinib at dose levels of 45 mg once daily (QD), 30 mg QD, 15 mg QD and 60 mg QD, with a cycle duration of 28 days, are included in the analysis dataset. All trials were conducted in accordance with the International Council on Harmonization Good Clinical Practice guidelines and the provisions of the Declaration of Helsinki. The institutional review board or independent ethics committee at each participating center approved the protocol. All patients provided written informed consent before enrollment.
Patients in the 11 studies who received continuous oral dosing schedule of dacomitinib at dose levels of 45 mg once daily (QD), 30 mg QD, 15 mg QD and 60 mg QD, with a cycle duration of 28 days, are included in the analysis dataset. […] PF-05199265 has been identified to have an inhibitory and selectivity profile similar to the parent molecule. For each patient, steady-state trough concentrations (Ctrough,ss) were defined as an observed concentration collected at the nominal predose (0 h) time point on Day 1 of Cycle 2 through Cycle 10 with at least 14 days of continuous dacomitinib dosing at one dose level. Ctrough,ss were dose normalized to 45 mg, calculated as Ctrough,ss times 45 mg/dose for the analysis and reporting.
The Ctrough,ss values were used to represent steady-state exposure in patients following administration of 45 mg QD dacomitinib.
The Ctrough,ss collected prior to any reported H2RA use or at least 14 days after the last reported date of H2RA use served as the dacomitinib without H2RA reference. Dacomitinib co-administered with H2RA as the comparator was defined as Ctrough,ss collected after the use of any reported H2RA continuously for at least 3 days. The H2RAs reported in these studies included cimetidine, famotidine, nizatidine and ranitidine.

[2] = set-up: method as in ref 26 = [26]; 26. US Food and Drug Administration (FDA) VIZIMPRO ® (Dacomitinib) Review Available online: https://www.accessdata.fda.gov/drugsatfda_docs/nda/2018/211288Orig1s000ChemR.pdf (accessed on 6 November 202); conditions: cited from earlier work
[3] = set-up: method as in ref 26 = [26]; 26. US Food and Drug Administration (FDA) VIZIMPRO ® (Dacomitinib) Review Available online: https://www.accessdata.fda.gov/drugsatfda_docs/nda/2018/211288Orig1s000ChemR.pdf (accessed on 6 November 202); conditions: base; cited from earlier work
[4] = healthy volunteers, cited from earlier work; for AUCinf Observed / Cmax Observed: 45 mg oral
[5] = set-up: method as in ref 26 = [26]; 26. US Food and Drug Administration (FDA) VIZIMPRO ® (Dacomitinib) Review Available online: https://www.accessdata.fda.gov/drugsatfda_docs/nda/2018/211288Orig1s000ChemR.pdf (accessed on 6 November 202); conditions: cited from earlier work; remark: listed apart in the source
[6] = set-up: method as in ref 2 = [2]; 2. US Food and Drug Administration (FDA) VIZIMPRO ® (Dacomitinib) Prescribing Information Available online: https://www.accessdata.fda.gov/drugsatfda_docs/label/2018/211288s000lbl.pdf (accessed on 6 N); conditions: with 20 mL locally acting antacid (Maalox Maximum Strength, 400 mg/5 mL); cited from earlier work
[7] = Oral absorption PBPK model (GastroPlus ACAT) simulations and gastric pH parameter sensitivity analysis; set-up: species or system human; conditions: 45 mg oral
From the text: (§1) PBPK modeling was used to evaluate the effect of changes in gastric pH on dacomitinib absorption. With physicochemical properties (e.g., Log P, pKa, mean precipitation time) and solubility data at different pH for dacomitinib, a two-compartment model coupled to the ACAT model was built using Gastroplus^TM version 9.7 (Simulation Plus, Inc., Lancaster, CA, USA) with default fasted gut physiology. Disposition PK parameters for dacomitinib were derived by initially fitting the PK data after intravenous (IV) administration from a study where the absolute bioavailability of dacomitinib was estimated by comparing oral to intravenous administration of dacomitinib in healthy volunteers.
The model that utilized the default physiological conditions of Gastroplus was used to simulate the plasma profiles for a 45 mg oral dose in healthy volunteers from the same study. […] The modified model was developed by optimizing the absorption scale factor (ASF) model based on the clinical PK data to reflect the prolonged Tmax of the plasma profile since all the systemic PK parameters were fixed after fitting the IV profile.
The model was validated using the mean plasma profiles of dacomitinib under 3 different conditions or treatments (fasted, fed, and PPI treatment using rabeprazole 40 mg administered QD for 7 days) following oral administration of a 45 mg dose in a clinical study in healthy volunteers to evaluate the food effect and effect of PPIs. In this study, PK samples were collected at the same nominal times of 0, 1, 2, 4, 6, 8, 12, 24, 48, 72, 96, 120, 144, 168, 192, 216 and 264 h post-dose. The mean plasma drug concentration–time profile of dacomitinib was obtained for each condition, namely fasted, fed and PPI treatment, and respective exposure parameters (Cmax and AUCinf) were derived from Gastroplus. The simulation was conducted using Gastroplus with the default physiological conditions of fasted or fed and by setting the gastric pH in the model to 6.0. This allowed for the simulation of the situations corresponding to fasted, fed and PPI treatment, respectively.
The gastric pH in the PBPK model was manipulated to enable the evaluation of a range of pH values from 1.0 to 6.0 during pharmacokinetic (PK) simulations. Parameter sensitivity analyses (PSAs) were performed on the PBPK model to assess the impact of pH variations from 1.0 to 5.0, which mimicked the effect of H2RAs on the absorption of dacomitinib.

[8] = Disposition PK parameters fitted to intravenous data from the absolute bioavailability study in healthy volunteers; assay type: in vivo, human; conditions: automatic estimation using PK Plus based on IV data from clinical study
From the text: as §1

[9] = co-administration with PPI (rabeprazole 40 mg QD for 7 days)
[10] = single 45 mg dose after 7 days of rabeprazole 40 mg

SMILES: COc1cc2ncnc(Nc3ccc(F)c(Cl)c3)c2cc1NC(=O)/C=C/CN1CCCCC1 [dacomitinib]
- Ctrough,ss Geometric Mean (Geometric CV%), Test [1]: 53.2 ng/mL
- Ctrough,ss Geometric Mean (Geometric CV%), Test ([1]; listed as Dacomitinib): 53.2 (18.7) ng/mL
- Ctrough,ss Geometric Mean (Geometric CV%), Reference [1]: 57.56 ng/mL
- Ctrough,ss Geometric Mean (Geometric CV%), Reference ([1]; listed as Dacomitinib): 57.56 (8.4) ng/mL
- Ctrough,ss Geometric Mean Ratio test/reference (90% CI) ([1]; with H2RA vs without H2RA, adjusted, linear mixed effects model): 85.88 (72.9, 101.11) %
- Solubility ([2]; pH 1.28): 10000 µg/mL (≈ 21300 µM)
- Solubility ([2]; pH 4.71): 3700 µg/mL (≈ 7870 µM)
- Solubility ([2]; pH 5.09): 340 µg/mL (≈ 723 µM)
- Solubility ([2]; pH 5.17): 230 µg/mL (≈ 489 µM)
- Solubility ([2]; pH 5.3): 160 µg/mL (≈ 340 µM)
- Solubility ([2]; pH 6.13): 6 µg/mL (≈ 12.8 µM)
- Solubility ([2]; pH 6.94): 1 µg/mL (≈ 2.13 µM)
- pKa [3]: 5.03 (base)
- AUCinf Observed [4, 9]: 715.96 ng·h/mL
- Cmax Observed [4, 9]: 9.125 ng/mL
- AUCinf Observed ([4]; fasted state): 1171 ng·h/mL
- Cmax Observed ([4]; fasted state): 18.41 ng/mL
- AUCinf Observed ([4]; fed state): 1163 ng·h/mL
- Cmax Observed ([4]; fed state): 21.35 ng/mL
- decrease of AUC ([4]; co-administration with multiple doses of rabeprazole (a PPI)): 39%
- reduction of AUC0-96 [4, 10]: 39%
- reduction of Cmax [4, 10]: 51%
- LogP ([5]; cationic): 1.8
- LogP ([5]; neutral): 5.3
- changes in dacomitinib concentrations [6]: did not cause clinically relevant changes
- Ratio of AUCinf (predicted-to-observed) ([7]; co-administration with PPI): 0.857
- Ratio of Cmax (predicted-to-observed) ([7]; co-administration with PPI): 0.940
- Ratio of AUCinf (predicted-to-observed) ([7]; fasted state): 1.00
- Ratio of Cmax (predicted-to-observed) ([7]; fasted state): 1.01
- Ratio of AUCinf (predicted-to-observed) ([7]; fed state): 1.07
- Ratio of Cmax (predicted-to-observed) ([7]; fed state): 0.952
- K12 [8]: 0.033 h⁻¹
- K21 [8]: 0.038 h⁻¹
- V2 [8]: 19.018 L/kg
- Vc [8]: 21.9 L/kg
- clearance ([8]; human, plasma, two-compartment model, healthy volunteers): 602 mL/min
